Data from paper PMC9001717, “Tyrosine 121 moves revealing a ligandable pocket that couples catalysis to ATP-binding in serine racemase” (Communications Biology, 2022).
Changes are numbered by the printed parent chain. Where two headings read alike, the source gives them in different places.

Legend:
[1] = molecular target: T1, human serine racemase (hSR) WT (Homo sapiens, UniProt Q9GZT4, C2D/C6D); test: L- to D-Ser racemisation coupled luminescence assay, wild-type hSR; format: biochemical; conditions: for IC50: wild-type hSR, 1 mM ATP, 2 mM L-serine, 16.7% DMSO, ~ = extrapolated with artificial 100% point at 1 M; for inhibition of SR, in words: assay data for compounds observed to displace Tyr 121; for inhibition at 16700 µM: maximum compound concentration 16.7mM, read-out: inhibition at maximum concentration used in assay
T1 construct: (His)6 (C); made in house; host or cells: E. coli (BL21-CodonPlus (DE3)-RIL for the mutants; the wild type is only 'as described[33]')
T1 sequence (Q9GZT4 1-340 C2D/C6D): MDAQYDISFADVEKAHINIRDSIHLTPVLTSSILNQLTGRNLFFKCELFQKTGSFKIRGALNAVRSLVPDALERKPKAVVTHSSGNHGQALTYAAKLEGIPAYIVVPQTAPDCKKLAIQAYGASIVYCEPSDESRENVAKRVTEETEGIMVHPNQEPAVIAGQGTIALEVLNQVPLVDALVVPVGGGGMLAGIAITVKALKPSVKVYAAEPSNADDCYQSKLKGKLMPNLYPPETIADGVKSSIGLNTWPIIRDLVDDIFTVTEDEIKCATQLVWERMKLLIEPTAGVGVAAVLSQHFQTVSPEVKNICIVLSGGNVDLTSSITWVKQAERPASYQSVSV
Description: (§1) The ability of compounds to inhibit the L to D-Ser racemisation activity of hSR was measured in a coupled assay. In the assay, hSR converts L-Ser to D-Ser. The D-Ser is then converted into pyruvate, ammonia and hydrogen peroxide using D-amino acid oxidase. Next, the hydrogen peroxide reacts with luminol in the presence of horseradish peroxidase, producing luminescent by-product. In the assay malonate was used as a control compound and gave 100% inhibition – results for XChem compounds are shown in Supplementary Table 4 and in supplementary Fig. 12. The activity of the wild-type and the three Y121 mutants, Y121F, Y121A and Y121G was measured at six ATP concentrations (1 mM, 0.5 mM, 0.25 mM, 0.125 mM, 0.062 mM and 0.031 mM) as shown in supplementary Fig. 11.
(§2) The inhibition of hSR activity was measured using a luminescence assay in a 384 well plate (flat bottom white, Corning). Initially, each well contained 100 mM Tris pH 8.5, 0.05% Pluronic f-127 (VWR), 1 mM MgCl2, 1 mM ATP (disodium salt, Fisher), 10 µM PLP, 0.3 nM hSR, 2 mM L-serine and compound at 16.67 mM to 0.0077 mM (see supplementary Fig. 12) and had 16.7% DMSO concentration. The plate was incubated at RT with shaking for 30 min. After this, the reaction was stopped using a detection mix. The final well concentration was 100 mM Tris pH 8.5, 0.05% Pluronic f-127 (VWR), 1 mM EDTA (Fisher), 0.25 U/mL horseradish peroxidase, 0.5 U/mL D-amino acid oxidase and 25 µM Luminol (Insight Biotechnology) and 8.4% DMSO. The plate was left to incubate covered and shaking for 10 min. The plate was then read using a PHERAstar (BMG) plate reader. For the ATP dependant activity data, the method was kept the same, except for varying the concentration of ATP.
(§3) The relative light units read (x) on the PHERAstar were converted into percentage inhibition (PI) using the equation: PI=100x[1−(x−Min)/(Max−Min)] where min is negative control (100% inhibition) and max is the positive control (no inhibition). The IC50s were calculated with GraphPad (Prism 8.3.1, Graphpad Software, San Diego CA).

[2] = molecular target: T2, hSR Tyr 121 pocket (Homo sapiens, UniProt Q9GZT4, C2D/C6D); test: XChem crystallographic fragment screen; format: binding; design: key: A = best; D = worst; conditions: crystals soaked with 150 mM fragment
T2 construct: (His)6 (C); made in house; host or cells: E. coli (BL21-CodonPlus (DE3)-RIL for the mutants; the wild type is only 'as described[33]')
T2 sequence (Q9GZT4 1-340 C2D/C6D): T1 sequence (Q9GZT4 1-340 C2D/C6D)
Description: A crystallographic fragment screen was performed on holo crystals using the XChem screening strategy at Diamond Light Source[58]. For the XChem experiments, holo crystals were generated at 20 °C in 96-well Swissci 3-drop, sitting drop plates (Molecular Dimensions) using 14 mg/mL SR plus fresh 5 mM DTT dispensed in a 3:2 ratio (300 nL protein + 200 nL reservoir) equilibrated against 20 μL reservoir containing 100 mM MES pH 6.2, 100 mM Calcium chloride, 5% ethylene glycol and 20% PEG Smear Broad (Molecular Dimensions). This crystallisation condition differs from that reported in a recent crystal structure of holo SR (6SLH) which was crystallised against reservoir/precipitate of 100 mM Bis-Tris pH 6.5, 15% PEG 3350, 250 mM MgCl2[33]. ATP was present in the protein delivery buffer at 1.25-fold times the protein subunit concentration.
Crystal soaking, harvesting, mounting, and data collections were performed at the Diamond Light Source XChem facilities and beamline I04-1 through the XChem workflow[50],[59]. […] The full compound screen was performed on 600 crystals which were each soaked with 150 mM fragment compound (30% v/v of 500 mM stocks in DMSO) for ≥1.5 h before crystals were harvested and mounted on the fast microscope crystal mounting system. The fragments screened were obtained from the Diamond-SGC-iNext Poised (DSiP) XChem library.
The structure of the representative XChem holo crystal (20% DMSO soak, no fragment) presented in this paper (6ZUJ) was solved by rigid body refinement based on a previous structure (6SLH)[33] and refined with phenix.refine[71] and REFMAC5[68],[72] and modelled in coot[69]. Initial analysis of approx. 600 ligand-soaked crystals was carried out using XChemExplorer[59] a data-management and workflow tool to support large-scale simultaneous analysis of protein–ligand complexes during structure-based ligand discovery. The workflow flagged 95 structures with binding events, 44 of which were classified as interesting, spanning four distinct binding sites. Five SR structures from the XChem screen are described in this paper that are representative examples of the four major binding sites. One compound, 2-x0406, occupied not just one of the four major binding sites, but also occupied a second site adjacent to the tyrosine 121 pocket.

[3] = molecular target: T3, hSR Y121A (Homo sapiens, UniProt Q9GZT4, C2D/C6D/Y121A); test: L- to D-Ser racemisation coupled luminescence assay, Y121A mutant; format: biochemical; conditions: 1 mM ATP, 2 mM L-serine, 16.7% DMSO, ~ = extrapolated
T3 construct: (His)6 (C); made in house; host or cells: E. coli BL21-CodonPlus (DE3)-RIL
T3 sequence (Q9GZT4 1-340 C2D/C6D/Y121A): T1 sequence (Q9GZT4 1-340 C2D/C6D) with Y121A
Description: as §1, §2, §3

[4] = molecular target: T4, hSR Y121F (Homo sapiens, UniProt Q9GZT4, C2D/C6D/Y121F); test: L- to D-Ser racemisation coupled luminescence assay, Y121F mutant; format: biochemical; conditions: 1 mM ATP, 2 mM L-serine, 16.7% DMSO, ~ = extrapolated
T4 construct: (His)6 (C); made in house; host or cells: E. coli BL21-CodonPlus (DE3)-RIL
T4 sequence (Q9GZT4 1-340 C2D/C6D/Y121F): T1 sequence (Q9GZT4 1-340 C2D/C6D) with Y121F
Description: as §1, §2, §3

[5] = molecular target: T5, hSR Y121G (Homo sapiens, UniProt Q9GZT4, C2D/C6D/Y121G); test: L- to D-Ser racemisation coupled luminescence assay, Y121G mutant; format: biochemical; conditions: 1 mM ATP, 2 mM L-serine, 16.7% DMSO, ~ = extrapolated
T5 construct: (His)6 (C); made in house; host or cells: E. coli BL21-CodonPlus (DE3)-RIL
T5 sequence (Q9GZT4 1-340 C2D/C6D/Y121G): T1 sequence (Q9GZT4 1-340 C2D/C6D) with Y121G
Description: as §1, §2, §3

[6] = tested on: rat brain SR; design: method as in PMID 30918891, PMID 12021263; conditions: cited from earlier work
[7] = tested on: SR; design: method as in supplementary refs 2, 11-32; conditions: literature summary; ref supplementary refs 2, 11-32; cited from earlier work
[8] = molecular target: SR; conditions: cited from earlier work; for Ki: review of SR inhibitors
[9] = tested on: slime mould (D. discoideum) SR; design: method as in ref 56 (a number printed in a supplementary file, which may have a reference list of its own: not looked up in the article's list); conditions: ref 56; cited from earlier work

Molecule	IC50 [1] [mM]	Initial rank from examination of XChem electron density/fit [2]	IC50 [3] [mM]	IC50 [4] [mM]	further results
CC(=O)NCCc1ccccc1C [1-x0495]	~19.5	A	~23.6		inhibition at 10000 µM ([1]; 10mM, value of the originally submitted manuscript, quoted in peer review file): 102%
CC(=O)NC1CNc2ccccc2C1 (centres unmarked) [4-x0482]	0.0051		0.0033	0.0032	inhibition of SR, in words [1]: reasonably potent inhibitors; inhibition at 16700 µM [1]: 100%; IC50 [5]: 0.0044 mM
NC(=O)c1cnc(C(F)(F)F)nc1 [5-x0501]		D			
CNCC1COc2ccccc2O1 (centres unmarked) [6-x0513]		A			
CCCc1nnc(NC(=O)c2ccccn2)s1 [8-x0127]		D			
Cn1nccc1C(=O)NCc1cccs1 [9-x0154]		D			
[Ca+2] [Ca^2+]					SR activity in the presence of the ion ([6]; 1 mM ion): 134%
N[C@@H](CC(=O)NO)C(=O)O [L-aspartic acid β-hydroxamate]					Inhibition mode [7]: Competitive; Ki [8]: < 0.1 mM
N[C@H](C(=O)O)[C@H](O)C(=O)O [L-erythro-3-hydroxy-aspartate]					Inhibition mode [7]: Competitive; Ki [8]: < 0.1 mM
Nc1ncnc2c1ncn2[C@@H]1O[C@H](COP(=O)(O)OP(=O)([O-])OP(=O)([O-])O)[C@@H](O)[C@H]1O.[Mg+2] [Mg-ATP]					increase of elimination [9]: 6 fold; increase of racemisation [9]: 2.5 fold
[Mg+2] [Mg^2+]					SR activity in the presence of the ion ([6]; 10 μM ion): 112%
[Mn+2] [Mn^2+]					SR activity in the presence of the ion ([6]; 10 μM ion): 153%
madecassoside					Inhibition mode [7]: Competitive; IC50 ([8]; ref 49): 0.026 mM

The next lines start with results.

IC50 [1] [mM]	Initial rank from examination of XChem electron density/fit [2]	IC50 [3] [mM]	IC50 [4] [mM]	Molecule	further results
~3.7		~8.4	~7.8	O=C(NCc1nc2ccccc2[nH]1)c1ccco1 [2-x0406]	IC50 [5]: ~7.4 mM
0.0106		0.0094	0.0123	Nc1ccccc1N1CCOCC1 [3-x0458]	inhibition of SR, in words [1]: reasonably potent inhibitors; inhibition at 16700 µM [1]: 100%; IC50 [5]: 0.0234 mM
~12.5		~22.3	~20.7	O=C(CCCc1ccccc1)N1CCOCC1 [7-x0109]	IC50 [5]: ~26 mM
	D			CC(CS(N)(=O)=O)c1ccccc1 (centres unmarked) [10-x0302]	
~25.3	D	~37.6	~29.9	NCc1cc(-c2ccccc2)no1 [12-x0437]	IC50 [5]: ~26.3 mM
~6.9		~7.85	~7.4	OCc1ccc(-n2cnc3ccccc32)cc1 [14-x0478]	
~12.8		~16.1		CS(=O)(=O)Cc1nc2ccccc2[nH]1 [15-x0306]	
